Assay results reported in patent publication US20170268027A1, “METHOD FOR SYNTHESIS OF FATTY ACIDS” (priority 2014, published 2017).
Read-outs that look alike come from different tables or passages of the source.

Assays:
[1] = test system: Yarrowia lipolytica JMY3501; test: Culture D: fed-batch culture of Y. lipolytica JMY3501 with cerulenin pulse (fatty acid profile); type: cell-based
[2] = test system: Candida lypolytica; settings: cited from earlier work
[3] = test system: Y. lipolytica; test: preliminary dose studies of cerulenin on growth of Y. lipolytica; type: cell-based, Yarrowia lipolytica; settings: doses tested 1 to 25 mgcerulenin·gx^−1
[4] = test system: Yarrowia lipolytica W29; test: Culture B: fed-batch culture of Y. lipolytica W29 under nitrogen limitation with cerulenin pulse (growth, fatty acid profile); type: cell-based; set-up: Length of the carbon chain: unit not given here
[5] = between injection and 3 h after injection
[6] = −2 h (before the pulse, baseline)

For `C/C=C/C/C=C/CCC(=O)[C@H]1O[C@H]1C(N)=O` [cerulenin], the “effect on accumulation of short-chain fatty acids” value ([1]; 0.25 mgcerulenin·gx^−1, lipid accumulation phase) was “increase the accumulation of short-chain fatty acids”, the “C12 content in the fatty acid composition” value ([1]; after pulse of 0.25 mgcerulenin·gx^−1 (4% before)) was 7% and the “C14 content in the fatty acid composition” value ([1]; after pulse of 0.25 mgcerulenin·gx^−1 (7% before)) was 14%. For the same compound, the effect on growth ([2]; substrate containing n-tetradecane to n-octadecane) was “without exerting any effect”, the effect on growth ([2]; substrate containing n-undecane or n-dodecane) was “completely blocks the growth” and the “dose that completely inhibits growth” value [3] was 15 mgcerulenin·gx^−1. For the same compound, the Degree of unsaturation ([4]; 0 h (time of the pulse)) was 0.95, the “Length of the carbon chain” value ([4]; 0 h (time of the pulse)) was 16.98 and the “time of appearance of short-chain fatty acids after the pulse” value ([4]; 7 mgcerulenin·gx^−1) was 15 min. The “culture time after which the effect of partial inhibition of elongation kinetics disappeared” value ([4]; 7 mgcerulenin·gx^−1 pulse) was 9 h, the “increase of mass content of palmitic acid (C16:0) relative to before the pulse” value ([4]; 3 h after pulse) was 0.014 gAG·gx^−1 and the “increase of mass content of palmitoleic acid (C16:1) relative to before the pulse” value ([4]; 3 h after pulse) was 0.023 gAG·gx^−1. For the same compound, the Degree of unsaturation ([4]; +15 min. after the pulse) was 0.92, the “Length of the carbon chain” value ([4]; +15 min. after the pulse) was 16.83 and the Degree of unsaturation ([4]; +1 h after the pulse) was 0.73. The “Length of the carbon chain” value ([4]; +1 h after the pulse) was 16.3, the Degree of unsaturation ([4]; +3 h after the pulse) was 0.75 and the “Length of the carbon chain” value ([4]; +3 h after the pulse) was 15.3. The “accumulation of short-chain fatty acids” value ([4]; after 3 h of culture after the pulse of 7 mgcerulenin·gx^−1) was 24.5%, the “mass fraction of the fatty acid C18:3” value ([4]; after the pulse) was 6% and the “mass fraction F4,8 multiplied by” value ([4]; at 3 h) was 70. The “mass fraction F9,12 multiplied by” value ([4]; at 3 h) was 28, the “mass fraction F13,15 multiplied by” value ([4]; at 3 h) was 15 and the “factor of multiplication of the specific rate of synthesis of short-chain or medium-chain fatty acid” value ([4]; before vs 3 h after the pulse) was 14. The “average degree of unsaturation of neo-synthesised fatty acids” value [4, 5] was 0.6, the “average number of carbon atoms of neo-synthesised fatty acids” value [4, 5] was 12.74 carbon atoms and the “effect on the growth dynamic of the yeast” value ([4]; dose 7 μgcerulenin·mgx^−1, nitrogen limitation) was “no effect”. For the same compound, the “total fatty acids accumulated” value ([4]; during the 10 h following the cerulenin pulse) was 3%, the “variation of the growth rate” value ([4]; during the 10 h following the first injection, 7 mgcerulenin·gx^−1) was “less than 5%” and the “specific speed of production of fatty acid” value ([4]; following the addition of cerulenin (0.004 before)) was 0.0017 gAG·gx·h^−1. For the same compound, the “variation of mass content of fatty acids C4:0-C8:0 relative to before the pulse” value ([4]; in 3 h) was 0.05 gAG·gx^−1, the “variation of mass content of fatty acids C9:0-C12:0 relative to before the pulse” value ([4]; in 3 h) was 0.07 gAG·gx^−1 and the “variation of mass content of fatty acids C13:0-C15:0 relative to before the pulse” value ([4]; in 3 h) was 0.07 gAG·gx^−1. The Degree of unsaturation [4, 6] was 0.97 and the “Length of the carbon chain” value [4, 6] was 16.97.
